In patent US5990083A, “Multicatalytic protease inhibitors” (Cephalon, Inc., priority 1997, dated 1999):
Where “and” joins values, the source holds several entries; their conditions need not be identical. Identical values can stand only once.

Legend:
control soleus muscle = test: Effect of MCP inhibitors on control muscle protein content; assay type: in vivo, rat; conditions: Table 1; treated soleus versus vehicle-injected contralateral muscle
Excerpt: Juvenile female Sprague-Dawley rates (80-90 g) were tail-cast, hind limb suspended as in Jetspers, S. R. and Tischler, M. E., (1984) J. Appl. Physiol. 57: 1472-1479. The animal's hind limbs were elevated above the floor of the cage with each animal housed individually. Animals had free access to food and water, and were weighed at the time of suspension and at time of termination. During the suspension period the animals were checked daily to ensure that their toes were not touching the floor of the cage, and that there was no swelling of the tail due to the cast.
Animals were treated as in group B, except that 1 mM MCP inhibitor, contained in dimethysulfoxide (DMSO), was injected into the soleus of one leg and DMSO only into the contralateral soleus. Thus each experiment consisted of two control groups and the testing of MCP inhibitors of the invention. The completion of five such experiments with different pairs of inhibitors provided for an "n" value of 10 for testing each MCP inhibitor and with each tested in two different shipments of animals.
After the animal was sacrificed, the soleus was excised, trimmed of fat and connective tissue, and carefully weighed. The muscle was then homogenized in 10% trichloroacetic acid (TCA) and the precipitated protein pelleted by centrifugation. The pellet was then washed once with 10% TCA and once with ethanol:ether (1:1). The final pellet was solubilized in 4 ml of 1N sodium hydroxide. The sample was then analyzed for protein content by the biuret procedure, using albumin as a standard.
The effect of MCP inhibitors on total muscle protein content was examined primarily by paired comparison with the untreated contralateral muscle. The ratio of contents was calculated and then analyzed statistically by analysis of variance ("ANOVA"). The left leg was always the treated leg so that the protein content ratios could be compared to the non-treated control animals as well. In this way, a significant difference can be shown by comparing the protein content of the two legs, as well as the relative effectiveness of the tested MCP inhibitors. […]

human MCP = molecular target: T1, human MCP (Homo sapiens, UniProt P28074+Q99436); test: Determination of IC50 values for MCP inhibitors (chymotrypsin-like or trypsin-like activity of MCP); assay type: biochemical; conditions: Table 5, first series; enzyme incubated with inhibitor 15 minutes at 37° C. prior to substrate
T1 construct: Samples of human liver and brain obtained post-mortem were used for isolation and partial purification of MCP; from tissue; host or cells: human liver and brain, post-mortem
Protocol: Samples of human liver and brain obtained post-mortem were used for isolation and partial purification of MCP by ion-exchange chromatography, ammonium sulfate precipitation, and gel filtration (e.g., Driscoll and Goldberg, Proc. Natl. Acad. Sci. 86, 787-791 (1989); Yamamoto et al., Biochim, Biophys. Acta 882, 297-304 (1986). For either starting material, tissue was homogenized in 10 volumes of 20 mM Tris-HCl (pH 7.5) containing 20% glycerol. Following centrifugation at 40,000×g for 30 minutes, proteolytic activity of the chymotrypsin-like component of MCP could be detected in the supernatant (see below). The supernatant was fractionated on a DEAE-Sepharose Fast Flow column equilibrated in homogenization buffer. For each liter of supernatant, 250 ml of resin was used. Following sample loading, the column was washed with ^~ 10 volumes homogenization buffer, and proteins were eluted with a linear NaCl gradient of from 0 to 400 mM (21 for 250 ml resin). Fractions were assayed for MCP activity, and the active fractions were pooled and subjected to precipitation with (NH4)2 SO4 at 80% saturation. Precipitated proteins were collected by centrifugation, resuspended in homogenization buffer, and loaded on a Sephacryl S300HR column (500 ml resin volume) that had been standardized using bovine serum albumin (68 kDa). A single peak of MCP activity was eluted with a molecular weight of ^~ 650 kDa. This preparation was free of other measurable proteolytic activities and maintained its MCP activity upon storage at 4° C. for >6 months. This preparation was used for most of the experiments. Further fractionation of the preparation on an hydroxyapatite-Ultrogel column (Yamamoto et al., supra) yielded a more highly purified enzyme, which according to denaturing SDS-polyacrylamide gel electrophoresis was comprised of the expected >10 subunits ranging in Mr from 20 to 35 kDa.
The procedure for MPC isolation described above generated an enzyme complex whose proteolytic activities were latent, but which could be activated by addition of low concentrations (0.02-0.05%) of SDS (Yamamoto et al., supra). The chymotrypsin-like activity was assayed according to the following procedure: in 96 well microtiter plates, human MCP was diluted 4 to 10-fold in homogenization buffer containing 0.04% SDS. A calorimetric substrate MeOSuc-EVKM-para-nitroanilide (methoxysuccinyl-Glu-Val-Lys-Met-pNa), purchased from Bachem Bioscience Inc., King of Prussia, Pennsylvania was added to a final concentration of 100 μM from a stock solution of 10 mM in dimethylsulfoxide. Reaction volumes were 200 μl per well. After incubation for various periods of time at 37° C., the concentration of free pNa was determined on a Biotech EL-340 microplate reader, reading absorption at 490 nm. Protease activity was determined under conditions in which substrate hydrolysis increased linearly with time and the change in absorption was proportional to the concentration of free pNa. Alternatively, a fluorogenic substrate was used, methoxysuccinyl-Phe-Leu-Phe-amidomethylcoumarin (Enzyme Systems Products, Dublin, Calif.), and the change in fluorescence monitored at an excitation of 390 nm, and an emission at 460 nm.
The trypsin-like activity of human MCP was assayed as described above with the following modifications. Reactions were carried out in Tris-glycerol buffer (pH 9.5) supplemented with 1 mM 2-mercaptoethanol, and the substrate was a fluorogenic substrate, Benzyloxycarbonyl--Phe--Arg--AMC (100 μM).
After incubation for various periods of time at 37° C., the concentration of free AMC was determined on a Fluoroskan II spectrofluorimeter with an excitation filter of 390 nm and an emission filter of 460 nm. Protease activity was determined under conditions in which substrate hydrolysis increased linearly with time and the change in fluorescence was proportional to the concentration of free AMC. […]

Row | SMILES | Protein, Treatment (control muscle) (control soleus muscle) [mg/muscle] | IC50 (human MCP)
1 | CC(C)C[C@@H](C=O)NC(=O)[C@H](CCCNC(=N)N[N+](=O)[O-])NC(=O)C(CCCCCCCCC#N)C1CCCC1 (stereo partly drawn) [Compound 14, 10-cyano-2-cyclopentyldecanoyl-N^g-nitro-L-arginyl-L-leucinal] | 6.1 | 7 nM and 6 nM
2 | COC(=O)CCCCCCCC(C(=O)N[C@@H](CCCNC(=N)NS(=O)(=O)c1c(C)c(C)c2c(c1C)CCC(C)(C)O2)C(=O)N[C@H](C=O)CC(C)C)C1CCCC1 (stereo partly drawn) [Compound 20, 9-Methoxycarbonyl-2-cyclopentyl-nonanoyl-N^g-(2,2,5,7,8-pentamethylchroman-6-sulfonyl)-L-arginyl-L-leucinal] | 5.9 | 10 nM
